Data on 39 molecules can be found in ChEMBL document CHEMBL4483862, “Open-source discovery of chemical leads for next-generation chemoprotective antimalarials” (2018).

A value given as a limit tells only on which side of the number the result lay.

For this assay, the system named is Plasmodium berghei. Briefly: Luciferase/luciferin-expressing antifolate-resistant parasites were used to infect a culture of HepG2 cells that were pre-incubated with compounds. Infected hepatocytes emit light due to the luciferase reaction. Assay results are presented as the percent inhibition of light emission compared to control. […]. The following applies: sporozoite; for IC90: read-out: LUCIFERASE INFECTION ASSAY - IC90. Format: functional.

[1] abbreviates: read-out: LUCIFERASE INFECTION ASSAY - IC50.

For the molecule `CCCCCCCCCCCc1nnc(SCc2ccc(Cl)cc2)n1-c1ccccc1C(F)(F)F`, the concentration for an effect of 90% (IC90) (as a rule, the concentration at which the effect reaches the 90% level) is more than 6.3 µM. The IC50 (in general, the concentration that inhibits the measured activity by half) (FFLUC_HILL_SLOPE 9.94, FFLUC_R_SQUARED 0.653, read-out: LUCIFERASE INFECTION ASSAY - IC50) was more than 6.3 µM.
With `CC(C)c1ccc(NC(=O)Nc2nc(C(N)CCc3ccccc3)cs2)cc1` (stereo not drawn), the concentration for an effect of 90% (IC90) was 7.09 µM. Moreover, under “HEPG2TOX_HILL_SLOPE 3.95, HEPG2TOX_R_SQUARED 0.94, PBLUC_HILL_SLOPE 4.47, PBLUC_R_SQUARED 0.626, read-out: LUCIFERASE INFECTION ASSAY - IC50”, the 50% inhibitory concentration (IC50) was found to be 4.34 µM.
Turning to `c1ccc2c(NCCNc3ncnc4ccccc34)cccc2c1`, the IC90 is 4.93 µM. For the same molecule, the IC50 (HEPG2TOX_HILL_SLOPE 0.364, HEPG2TOX_R_SQUARED 0.666, PBLUC_HILL_SLOPE 0.695, PBLUC_R_SQUARED 0.76, read-out: LUCIFERASE INFECTION ASSAY - IC50) was determined as 0.209 µM.
In the case of `COc1ccc(-c2cnc3cnc(-c4ccc(CNc5ccccc5)cc4)cn23)cn1`, the IC90 came out at 8.05 µM. The concentration for half-maximal inhibition (IC50) under setting [1] was 2.72 µM.
Take `COc1ccc(OC)c(/C=C/C(=O)Nc2cc(C(F)(F)F)ccc2Oc2ccc(Br)cc2)c1`: the IC90 was more than 10 µM. The half-inhibitory concentration (IC50) (FFLUC_HILL_SLOPE 11.8, FFLUC_R_SQUARED 0.49, HEPG2TOX_HILL_SLOPE 2.88, HEPG2TOX_R_SQUARED 0.666, read-out: LUCIFERASE INFECTION ASSAY - IC50) was more than 10 µM.
In the case of `COc1ccc(OC)c(CCNc2nc3cnc(-c4cc(OC)c(OC)c(OC)c4)cc3n2C)c1`, the IC90 is more than 10 µM. The IC50 (PBLUC_HILL_SLOPE 3.05, PBLUC_R_SQUARED 0.174, read-out: LUCIFERASE INFECTION ASSAY - IC50) was 7.61 µM.
`CCc1c(C)[nH]c2cc(-c3ccc(OC)cc3)nn2c1=O`: the concentration for an effect of 90% (IC90) amounted to 3.98 µM. For the same molecule, under “PBLUC_HILL_SLOPE 29.9, PBLUC_R_SQUARED 0.167, read-out: LUCIFERASE INFECTION ASSAY - IC50”, the 50% inhibitory concentration (IC50) was determined as 3.7 µM.
`NC(=O)NC(CC(=O)OCC(=O)Nc1ccccc1-c1ccccc1)c1ccc(Cl)cc1` (stereo not drawn): the concentration for an effect of 90% (IC90) was more than 10 µM. The IC50 (PBLUC_HILL_SLOPE 5.92, PBLUC_R_SQUARED 0.131, read-out: LUCIFERASE INFECTION ASSAY - IC50) is more than 10 µM.
For `O=C(NC(CCCc1ccccc1)c1ccccc1)c1ccc(N2CCCS2(=O)=O)cc1` (stereo not drawn), the concentration for an effect of 90% (IC90) worked out at 5.73 µM. The IC50 under setting [1] came out at 5.56 µM.
With `Cc1cc(=O)[nH]n(-c2ccccc2)c1=O`, the IC90 was 8.7 µM. Besides, the IC50 (HEPG2TOX_HILL_SLOPE 8.84, HEPG2TOX_R_SQUARED 0.75, PBLUC_HILL_SLOPE 7.32, PBLUC_R_SQUARED 0.521, read-out: LUCIFERASE INFECTION ASSAY - IC50) came out at 6.44 µM.
Regarding `CN(C)S(=O)(=O)c1ccc(N2CCCC2)c(C(=O)N2CCCC2)c1`, the IC90 is more than 10 µM. For the same molecule, the half-maximal inhibitory concentration (IC50) under setting [1] is more than 10 µM.
With `C/C(=N\NC(=S)Nc1cccc(C(F)(F)F)c1)c1cc(Cl)cc(Cl)c1O`, the IC90 was more than 7.82 µM. Also, the half-inhibitory concentration (IC50) (PBLUC_HILL_SLOPE 20.9, PBLUC_R_SQUARED 0.295, read-out: LUCIFERASE INFECTION ASSAY - IC50) is 7.78 µM.
In the case of `ONC(=NC(=S)Nc1cc(Cl)ccc1Cl)c1ccccn1`, the concentration for an effect of 90% (IC90) amounted to 9.52 µM. In addition, the IC50 (HEPG2TOX_HILL_SLOPE 1.13, HEPG2TOX_R_SQUARED 0.776, PBLUC_HILL_SLOPE 15.8, PBLUC_R_SQUARED 0.357, read-out: LUCIFERASE INFECTION ASSAY - IC50) was 8.29 µM.
On to `COc1cc(NC(=O)COC(=O)c2c(C)nn(Cc3ccc(Cl)cc3Cl)c2Cl)c(C)cc1[N+](=O)[O-]`, for which the IC90 is more than 10 µM. Also, the IC50 (FFLUC_HILL_SLOPE 1.94, FFLUC_R_SQUARED 0.846, read-out: LUCIFERASE INFECTION ASSAY - IC50) is more than 10 µM.
With `CNc1nc2cnc(-c3ccc(O)c(OC)c3)cc2n1Cc1ccccc1`, the concentration for an effect of 90% (IC90) was 3.99 µM. The IC50 under setting [1] was determined as 3.17 µM.
As to `Cc1cc(C(=O)CN2C(=O)C(=O)N(Cc3ccccc3)C2=O)c(C)n1-c1ccc2c(c1)OCO2`, the IC90 is more than 10 µM. Further, where the note is “HEPG2TOX_HILL_SLOPE 8.65, HEPG2TOX_R_SQUARED 0.666, PBLUC_HILL_SLOPE 3.13, PBLUC_R_SQUARED 0.534, read-out: LUCIFERASE INFECTION ASSAY - IC50”, the half-inhibitory concentration (IC50) amounted to 6.04 µM.
For the molecule `Cc1cc(C)cc(C(=O)NCC(=O)N(C)Cc2cn(-c3ccccc3)nc2-c2ccccc2)c1`, the IC90 was more than 10 µM. Moreover, the IC50 (PBLUC_HILL_SLOPE 2.80, 14.9, PBLUC_R_SQUARED 0.685, 0.405, read-out: LUCIFERASE INFECTION ASSAY - IC50) worked out at 7.57 µM.
Consider `Cc1[nH]c2ccc(F)cc2c(=O)c1I`, for which the concentration for an effect of 90% (IC90) worked out at 1.32 µM. Further, for the setting “PBLUC_HILL_SLOPE 10, PBLUC_R_SQUARED 0.604, read-out: LUCIFERASE INFECTION ASSAY - IC50”, the IC50 was determined as 1.06 µM.
In the case of `O=[N+]([O-])c1cccc(OCC(O)CN2CCN(Cc3nc(-c4ccc(Cl)cc4)no3)CC2)c1` (stereo not drawn), the concentration for an effect of 90% (IC90) was more than 10 µM. Under “HEPG2TOX_HILL_SLOPE 10.3, HEPG2TOX_R_SQUARED 0.223, PBLUC_HILL_SLOPE 2.57, PBLUC_R_SQUARED 0.732, read-out: LUCIFERASE INFECTION ASSAY - IC50”, the half-inhibitory concentration (IC50) was determined as 4.59 µM.
As to `CN(/N=C/c1cc(Cl)cc(Cl)c1O)C(=S)NC(C)(C)C`, the IC90 was more than 9.87 µM. Also, the half-maximal inhibitory concentration (IC50) under setting [1] was more than 9.87 µM.
On to `CC1C(c2ccccc2)N(C)C(c2ccccc2)CC1(O)c1ccc(F)cc1` (stereo not drawn), for which the IC90 is more than 8.01 µM. For the same molecule, for the setting “PBLUC_HILL_SLOPE 3.61, PBLUC_R_SQUARED 0.228, read-out: LUCIFERASE INFECTION ASSAY - IC50”, the half-maximal inhibitory concentration (IC50) turned out to be 7.47 µM.
For `O=C(NNC(=O)c1cc(F)c(F)c(F)c1F)c1ccc(COc2cccc3cccnc23)cc1`, the IC90 was more than 10 µM. Also, the half-inhibitory concentration (IC50) under setting [1] is more than 10 µM.
As for `CSc1nnc(-c2ccc(C(C)(C)C)cc2)n1C`, the IC90 is more than 12.6 µM. The IC50 under setting [1] was more than 12.6 µM.
On to `C=CCN(C(=O)c1sc2nc3n(c(=O)c2c1C)CCCCC3)c1nc2c(s1)CCCC2`, for which the concentration for an effect of 90% (IC90) was more than 10 µM. Also, the IC50 (PBLUC_HILL_SLOPE 1.42, PBLUC_R_SQUARED 0.275, read-out: LUCIFERASE INFECTION ASSAY - IC50) was more than 10 µM.
In the case of `O=c1[nH]n(-c2ccc(Cl)c(Cl)c2)cc1-c1cccc(Cl)c1`, the IC90 stood at 5.52 µM. Besides, under “HEPG2TOX_HILL_SLOPE 2.22, HEPG2TOX_R_SQUARED 0.951, PBLUC_HILL_SLOPE 6.3, PBLUC_R_SQUARED 0.659, read-out: LUCIFERASE INFECTION ASSAY - IC50”, the 50% inhibitory concentration (IC50) was determined as 3.89 µM.
With `O=C(CCSc1nc(NC2CC2)c2ccccc2n1)N1CCc2ccccc21`, the concentration for an effect of 90% (IC90) was determined as 7.86 µM. The IC50 under setting [1] worked out at 3.46 µM.
As for `Cc1c(C)n(CCCO)c2ncn3nc(-c4ccccc4)nc3c12`, the IC90 is more than 10.3 µM. Also, the half-maximal inhibitory concentration (IC50) (PBLUC_HILL_SLOPE 0.753, PBLUC_R_SQUARED 0.737, read-out: LUCIFERASE INFECTION ASSAY - IC50) is 1.26 µM.
As for `COc1ccc(C(=O)C(/C=N/N)=N/Nc2ccc(C(F)(F)F)cc2)cc1`, the IC90 turned out to be 8.8 µM. The IC50 (HEPG2TOX_HILL_SLOPE 1.78, HEPG2TOX_R_SQUARED 0.947, PBLUC_HILL_SLOPE 3.28, PBLUC_R_SQUARED 0.359, read-out: LUCIFERASE INFECTION ASSAY - IC50) was determined as 4.5 µM.
Turning to `CC(C)(C)c1ccc(-c2cnc3cnc(-c4ccc(C(=O)N5CCOCC5)cc4)cn23)cc1`, the IC90 is more than 7.49 µM. In addition, the concentration for half-maximal inhibition (IC50) (PBLUC_HILL_SLOPE 4.5, PBLUC_R_SQUARED 0.623, read-out: LUCIFERASE INFECTION ASSAY - IC50) worked out at 4.7 µM.
With `CC(Sc1nc2ccsc2c(=O)n1C)c1ccc(F)cc1` (stereo not drawn), the concentration for an effect of 90% (IC90) was more than 10 µM. Where the note is “PBLUC_HILL_SLOPE 11.9, PBLUC_R_SQUARED 0.0437, read-out: LUCIFERASE INFECTION ASSAY - IC50”, the half-inhibitory concentration (IC50) was more than 10 µM.
Take `CC(C)c1nc2ccccc2n1Cc1cccc2ccccc12`: the 90% effect concentration (IC90) came to 4.17 µM. For the same molecule, the IC50 (HEPG2TOX_HILL_SLOPE 2.18, HEPG2TOX_R_SQUARED 0.953, PBLUC_HILL_SLOPE 14.4, PBLUC_R_SQUARED 0.432, read-out: LUCIFERASE INFECTION ASSAY - IC50) came out at 3.58 µM.
As for `CCOC(=O)c1ccc(-n2c(C)cc(/C=C(\C#N)c3nc4ccccc4[nH]3)c2C)cc1`, the IC90 was more than 10 µM. Also, the IC50 under setting [1] is more than 10 µM.
`NC(=O)c1ccc(-c2cc(-c3cccc(F)c3)cnc2N)cc1`: the 90% effect concentration (IC90) stood at 10.5 µM. Besides, under “PBLUC_HILL_SLOPE 18, PBLUC_R_SQUARED 0.175, read-out: LUCIFERASE INFECTION ASSAY - IC50”, the half-inhibitory concentration (IC50) is 9.29 µM.
As for `COCc1cccc(C(=O)Nc2ccc3c(c2)OC(F)(F)O3)c1`, the IC90 was more than 10 µM. The IC50 (HEPG2TOX_HILL_SLOPE 7.81, HEPG2TOX_R_SQUARED 0.0219, PBLUC_HILL_SLOPE 15.2, PBLUC_R_SQUARED 0.505, read-out: LUCIFERASE INFECTION ASSAY - IC50) worked out at 9.35 µM.
For `Clc1ccc(OCc2cccnc2)c(CN2CCN(c3ncccn3)CC2)c1`, the IC90 was more than 10 µM. For the same molecule, the IC50 under setting [1] is more than 10 µM.
For the molecule `Cc1ccc2nc(NC(=O)C3CCCC3)c(C(=O)NC3CCCC3)n2c1`, the 90% effect concentration (IC90) was more than 9.31 µM. Moreover, under setting [1], the half-maximal inhibitory concentration (IC50) was more than 9.31 µM.
In the case of `CCC(C)NC(=O)c1c(NC(=O)c2ccc(Cl)cc2)nc2ccc(C)cn12` (stereo not drawn), the 90% effect concentration (IC90) is 3.02 µM. Moreover, the IC50 under setting [1] stood at 2.58 µM.
In the case of `Cc1c(/N=c2\scc(-c3cc4ccccc4o3)n2/N=C/c2ccsc2)c(=O)n(-c2ccccc2)n1C`, the 90% effect concentration (IC90) was found to be 4.03 µM. Further, the IC50 (PBLUC_HILL_SLOPE 16.9, PBLUC_R_SQUARED 0.235, read-out: LUCIFERASE INFECTION ASSAY - IC50) is 3.54 µM.
Regarding `CCOc1ccc(C(C)=O)cc1CSc1nnc(-c2ccc(F)cc2)c2ccccc12`, the IC90 is more than 10 µM. Moreover, the concentration for half-maximal inhibition (IC50) under setting [1] is more than 10 µM.
